In patent US20110207796A1, “ALPHA-SYNUCLEIN KINASE” (Elan Pharma International Limited, priority 2008, published 2011):
Read-outs that look alike come from different tables or passages of the source.

Columns and labels:
[1] = tested on: brain p-synuclein (p-Ser129); assay: in vivo inhibition of phosphorylation of synuclein in wild-type FVB mice, brain western blot; parameters: species or system mouse; settings: IV tail vein 50 mg/kg
Protocol: The examples above describe the identification and in vitro validation of polo-like kinase 2 (PLK2) as an α-synuclein Ser 129-specific kinase. This example describes the ability of a kinase inhibitor (BI 2561) to decrease phosphorylation of α-synuclein in vivo. Wild-type FVB mice were treated by IV tail vein with 50 mg/kg of the PLK-specific inhibitor. Total α-synuclein and p-synuclein levels in brain (p-Ser129) were analyzed by western blot.

[2] = target: synuclein phosphorylation by endogenous kinase; assay: kinase inhibitor treatment of mouse cortical cultures (MCC), total and phospho-synuclein ELISA; type: cell-based
Protocol: Mouse cortical cultures from fetal (i) Swiss-Webster, (ii) C56BL/6 WT and (iii) C56BL/6 E46K-Synuclein Trangenic mice were prepared and maintained in B27/DMEM/1% Penicillin-Streptomycin at 37° C./10% CO2 for three to fourteen days and then treated with kinase inhibitors.
Cultures were exposed to inhibitors for two hours in B27/DMEM/1% Penicillin-Streptomycin. Cells were immediately washed in 100 μL of PBS plus Mg^2+ and Ca^2+, and harvested in ice-cold CEB minus EGTA plus protease inhibitors, frozen on dry ice and stored at −80° C. until processed. A Micro BCA (Pierce) total protein assay, and total synuclein and phospho-synuclein ELISAs were performed on each plate of treated cells using standard methods.

[3] = target: synuclein phosphorylation by endogenous kinase; assay: kinase inhibitor treatment of rat ventral mesencephalon (RVM) cultures transduced with E46K-synuclein; type: cell-based
Protocol: (§1) Rat Ventral Mesencephalon (RVM) cultures were prepared from E15 Wistar rats. The RVM cultures were cultured for 2 days and transduced with 0.75 MOI E46K-Synuclein lentivirus alone, or 0.75 MOI E46K-Synuclein lentivirus plus 0.75 MOI ca-PLK2 lentivirus. […] Transduced cultures were maintained in neuronal media with B27/1% FBS and 37° C./5% CO2 until treated with inhibitors. On DIV 17 (which corresponds to 15 days after viral transduction of the cultures) cells were treated with inhibitors for two hours. Cells were then harvested as detailed above in neuronal media with B27/1% FBS. A Micro BCA (Pierce) total protein assay, and total synuclein and phospho-synuclein ELISAs were performed on each plate of treated cells using standard methods.

[4] = target: synuclein phosphorylation by constitutively active PLK2 (caPLK2); assay: kinase inhibitor treatment of RVM cultures transduced with E46K-synuclein plus ca-PLK2; type: cell-based; settings: rat ventral mesencephalon cultures
Protocol: as §1

[5] = tested on: synuclein phosphorylation (serine-129); assay: inhibition of synuclein phosphorylation across the cellular paradigms (primary neuronal cultures and 293 cells); type: cell-based, mouse, rat and human
[6] = target: T1, PLK2 (Homo sapiens, UniProt Q9NYY3); assay: in vitro biochemical assay of PLK2-driven synuclein phosphorylation
T1 sequence (Q9NYY3 whole entry): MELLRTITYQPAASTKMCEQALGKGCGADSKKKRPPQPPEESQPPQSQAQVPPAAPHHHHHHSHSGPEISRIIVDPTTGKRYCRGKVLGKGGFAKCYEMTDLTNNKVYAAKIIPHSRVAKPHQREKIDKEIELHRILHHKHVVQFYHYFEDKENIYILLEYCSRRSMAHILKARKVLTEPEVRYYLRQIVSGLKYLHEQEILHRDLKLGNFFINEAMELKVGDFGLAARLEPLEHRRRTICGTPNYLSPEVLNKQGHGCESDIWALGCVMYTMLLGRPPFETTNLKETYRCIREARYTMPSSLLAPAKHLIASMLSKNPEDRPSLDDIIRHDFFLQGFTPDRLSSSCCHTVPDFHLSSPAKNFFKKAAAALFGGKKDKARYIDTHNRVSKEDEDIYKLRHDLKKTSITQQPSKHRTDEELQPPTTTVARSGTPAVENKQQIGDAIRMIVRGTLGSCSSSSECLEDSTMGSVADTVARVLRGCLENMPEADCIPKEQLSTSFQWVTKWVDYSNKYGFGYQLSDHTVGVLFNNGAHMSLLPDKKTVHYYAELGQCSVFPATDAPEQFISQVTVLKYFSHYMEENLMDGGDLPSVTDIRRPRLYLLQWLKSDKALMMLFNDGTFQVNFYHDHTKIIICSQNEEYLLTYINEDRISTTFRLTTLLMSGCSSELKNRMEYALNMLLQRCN
Protocol: The reaction was incubated at 37° C. The activity was analyzed by autoradiography.
In vitro biochemical assays using each of the four PLK family members as the kinase to phosphorylate synuclein were conducted.

[7] = tested on: endogenous kinase (synuclein phosphorylation); assay: HEK-293 cells overexpressing synuclein with empty vector, inhibition of synuclein phosphorylation; type: cell-based, human; settings: 293 cells; for EC50: Table 18, read-out: EC50, Endogenous Kinase (293)
Protocol: (§2) All vectors had the sequence coding for the protein of interest. Transfection was accomplished using Lipofectamine 2000 (Invitrogen, Carlsbad, Calif.) with 0.08 μg vector. Cells were washed and harvested 48 hours post-transfection. A Micro BCA (Pierce) total protein assay and total synuclein and phospho-synuclein ELISAs were performed on each plate of treated cells.

[8] = target: T1, PLK2; assay: HEK-293 cells overexpressing synuclein and PLK2, inhibition of synuclein phosphorylation; type: cell-based; parameters: expressed in transfected cells; host or cells: HEK-293; settings: for EC50: 293 cells, Table 18, read-out: EC50, Over-Expressed PLK2 (293)
Protocol: as §2

[9] = E46K-Synuclein transgenic mouse cortical cultures, read-out: EC50, E46K-Syn TG MCC
[10] = WT mouse cortical cultures, read-out: EC50, WT-MCC
[11] = in vitro PLK2-driven synuclein phosphorylation, read-out: IC50, Straight Biochemical

CC[C@@H]1C(=O)N(C)c2cnc(Nc3ccc(C(=O)NC4CCN(C)CC4)cc3OC)nc2N1C1CCCC1 [BI 2561]
total α-synuclein levels in brain, western blot [1]: no effect
brain p-synuclein levels (p-Ser129), western blot ([1]; from 1 hour to 6 hours after treatment): clear decrease

Scytonemin
EC50 [2, 9]: > 100 µM
EC50 [2, 10]: > 100 µM
EC50 [3]: > 100 µM
EC50 [4]: > 100 µM
inhibition of 50% of synuclein phosphorylation in cells ([5]; cell types tested): did not inhibit 50%
inhibition of 50% of synuclein phosphorylation in the in vitro assay ([6]; PLK2-driven phosphorylation in vitro): did not inhibit 50%
IC50 [6, 11]: > 100 µM
EC50 [7]: > 100 µM
EC50 [8]: > 100 µM

Brc1c(Br)c(Br)c2[nH]nnc2c1Br [TBB]
effect on synuclein phosphorylation ([2]; MCC, even at concentrations of 100 μM): no effect

COC(=O)[C@@]1(O)C[C@H]2O[C@]1(C)n1c3ccccc3c3c4c(c5c6ccccc6n2c5c31)C(=O)NC4 [Compound K252A]
rank order of potency, E46K-Syn TG MCC ([2]; E46K-Synuclein transgenic mouse cortical cultures): 2
EC50 [2, 9]: 3.1 µM
rank order of potency, Swiss-Webster MCC ([2]; Swiss-Webster mouse cortical cultures): 2
EC50 ([2]; Swiss-Webster mouse cortical cultures, read-out: EC50, Swiss-Webster MCC): 2.9 µM
rank order of potency, WT-MCC ([2]; WT mouse cortical cultures): 2
EC50 [2, 10]: 3 µM
EC50 [3]: 3.2 µM
rank order of potency, RVM E46K-Synuclein [3]: 3
EC50 [4]: 3.5 µM
rank order of potency, RVM E46K-Synuclein caPLK2 [4]: 2
EC50 ([5]; Homo sapiens, HEK293, read-out: EC50 inhibition of synuclein phosphorylation, cellular paradigms): 3 to 7 µM
rank order of potency, Straight Biochemical [6]: 4
IC50 ([6]; PLK2-driven synuclein phosphorylation, read-out: IC50 in the in vitro biochemical assay): > 10 µM
IC50 [6, 11]: > 10 µM
rank order of potency, Endogenous Kinase (293) ([7]; Table 19): 2
EC50 ([7]; Homo sapiens, HEK293): 3.6 µM
rank order of potency, Over-Expressed PLK2 (293) [8]: 2
EC50 [8]: 7.1 µM
